Measured values taken from PubChem BioAssay AID179 (DTP/NCI, 2004).
Activity calls are given as the source filed them.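 How the source made its calls: active means compounds giving half or more protection of infected cells from virus-caused growth loss, again on retest; inactive means the rest.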

Test system: CEM cells HIV-1 protection, formazan growth assay
Assay: NCI AIDS Antiviral Assay
Conditions: for IC50: measured here: growth of uninfected CEM cells
How it was run: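 Human CEM cells, uninfected and HIV-1-infected, received five drug concentrations, and growth was read by soluble formazan assay. Compounds giving at least 50% protection were retested; reproducible 100% protection defined confirmed active.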

Q: Which results are given for `O=S(=O)(c1ccccc1)c1ccccc1`?
A: EC50: > 204 µM; IC50: > 204 µM

Q: What does the source list for `CC(NNC(=O)c1ccncc1)c1ccc(Cl)c(Cl)c1` (stereo unspecified)?
A: EC50: > 200 µM; IC50: 107 µM

Q: For `CC(C)=CCC1=C(O)c2ccccc2C(=O)C1=O`, which outcome is on record?
A: inactive

Q: Which results are given for `COc1cc(SSc2cc(OC)cc([N+](=O)[O-])c2N)c(N)c([N+](=O)[O-])c1`?
A: EC50: 4.47 µM; IC50: 15.5 µM

Q: How did the EC50 turn out when `COC(=O)C1=C(C(=O)OC)C2(C)Nc3ccccc3C2=C(c2ccccc2)C1` (stereo unspecified) was run?
A: > 19.1 µM

Q: What about the IC50 of the same molecule?
A: > 19.1 µM

Q: Which EC50 does the source give for `Cc1ccccc1N1C(=O)CC2(CCCC2)C1=O` here?
A: > 363 µM

Q: And the IC50?
A: 214 µM

Q: For `CN(C)c1nc(Cl)c2c(-c3ccccc3)c(-c3ccccc3)oc2n1`, which outcome is on record?
A: inactive

Q: Which results are given for `COc1ccc(C(=O)/C=C/c2ccc(OCCCCCCCCCCOc3ccc(/C=C/C(=O)c4ccc(OC)cc4)cc3)cc2)cc1`?
A: EC50: > 200 µM; IC50: > 200 µM

Q: `O=C(NNC(=O)c1ccc([N+](=O)[O-])cc1)c1ccc([N+](=O)[O-])cc1` was tested. Which EC50 did it give?
A: > 200 µM

Q: What about the IC50 of the same molecule?
A: > 200 µM

Q: How did the EC50 turn out when `COc1ccc(C2C3C(=O)C=CC(=O)C3[C@@H]2C)cc1OC` (stereo partly specified) was run?
A: > 174 µM

Q: What about the IC50 of the same molecule?
A: 13.2 µM

Q: With `CCCCC(C)C(OC(=O)CC(CC(=O)O)C(=O)O)C(CC(C)CC(O)CCCCC(O)CC(O)C(C)N)OC(=O)CC(CC(=O)O)C(=O)O` (stereo unspecified) as the molecule, how does the outcome read?
A: inactive

Q: With `COc1cc(C2SC(N)=Nc3c2c(C)nn3C(=O)Cc2ccccc2)ccc1O` (stereo unspecified) as the molecule, how does the EC50 read?
A: 70.8 µM

Q: And the IC50?
A: > 200 µM

Q: With `Cc1ccc(C2C(Cl)C(=O)N2n2cnc3ccccc3c2=O)cc1` (stereo unspecified) as the molecule, how does the EC50 read?
A: > 39.8 µM

Q: And the IC50?
A: > 39.8 µM

Q: `O=C(Cc1ccccc1)NN1C(=O)/C(=C\c2cccc(O)c2)SC1=Nc1ccccc1` was tested. Which EC50 did it give?
A: > 158 µM

Q: What about the IC50 of the same molecule?
A: 102 µM

Q: With `CN(C)CCNC(=O)c1nn(-c2ccccc2)c2c1CSc1ccccc1-2` as the molecule, how does the EC50 read?
A: > 200 µM

Q: What about the IC50 of the same molecule?
A: 110 µM

Q: What does the source list for `O=C(C(/C=N\C(=S)Nc1ccccc1Cl)=C(/O)c1ccccc1)c1ccccc1`?
A: EC50: > 200 µM; IC50: 12 µM

Q: Which outcome does the source give for `O=C(CCCCCCCCc1ccc(O)cc1)c1c(O)cccc1O` here?
A: inactive

Q: For `Nc1ncnc2c1ncn2C1COC(CO)C1CO` (stereo unspecified), which EC50 is on record?
A: 87.1 µM

Q: What about the IC50 of the same molecule?
A: > 200 µM

Q: For `CCCCNC(=O)c1cc(S(=O)(=O)n2cc[nH]c2=O)c(SC)cc1Cl`, which EC50 is on record?
A: > 200 µM

Q: And the IC50?
A: > 200 µM

Q: For `O=C(Nc1c[nH]c(=O)[nH]c1=O)c1ccc(S(=O)(=O)F)cc1`, which EC50 is on record?
A: > 151 µM

Q: What about the IC50 of the same molecule?
A: 85.1 µM

Q: What does the source list for `O=C1/C(=C/c2ccccc2)CN(C(=O)CCN2CCOCC2)C/C1=C\c1ccccc1`?
A: EC50: > 79.4 µM; IC50: 0.525 µM

Q: Which EC50 does the source give for `COC(=O)NC12CC3CC(CC(F)(C3)C1)C2` here?
A: > 575 µM

Q: And the IC50?
A: 145 µM

Q: With `CCOP(=O)(OCC)/C(C#N)=C/c1cccn1C` as the molecule, how does the EC50 read?
A: 46.8 µM

Q: What about the IC50 of the same molecule?
A: 537 µM

Q: For `COc1ccc(COC(=O)NNC(=O)C2CSC(c3ccccc3)N2C(C)=O)cc1` (stereo unspecified), which EC50 is on record?
A: > 200 µM

Q: And the IC50?
A: 174 µM

Q: Which EC50 does the source give for `C(=N\Nc1nnc2c(n1)[nH]c1ccccc12)/c1cccnc1` here?
A: > 200 µM

Q: What about the IC50 of the same molecule?
A: > 200 µM

Q: With `O=C(/C=C/C(=O)N/N=C/c1cc(S(=O)(=O)O)c2cccnc2c1O)N/N=C/c1cc(S(=O)(=O)O)c2cccnc2c1O` as the molecule, how does the EC50 read?
A: 178 µM

Q: And the IC50?
A: > 200 µM

Q: `CN(C)/C=N/c1nc2ncn(CCOC(=O)c3ccccc3)c2c(=O)[nH]1` was tested. Which EC50 did it give?
A: > 708 µM

Q: And the IC50?
A: > 708 µM

Q: For `C=C1CCC2C(C)(CO)C(O)CCC2(C)C1CC(O)C1=CCOC1=O` (stereo unspecified), which outcome is on record?
A: inactive

Q: `O=c1[nH]c(=O)n(Cc2ccccc2)cc1B(O)O` was tested. Which EC50 did it give?
A: > 200 µM

Q: What about the IC50 of the same molecule?
A: > 200 µM

Q: `O=C(Nc1nc(=S)c2c(ncn2CCOC(=O)c2ccccc2)[nH]1)c1ccccc1` was tested. Which EC50 did it give?
A: > 61.7 µM

Q: And the IC50?
A: > 61.7 µM

Q: Which EC50 does the source give for `S=C(N1CCN(c2cccc(Cl)c2)CC1)N1CCN(c2cccc(Cl)c2)CC1` here?
A: > 200 µM

Q: And the IC50?
A: 72.4 µM

Q: Which results are given for `Clc1ccc(C2=C(c3ccccc3)C(c3ccc(Cl)cc3)N3C(=N[C@H]4CCCC[C@@H]43)N2)cc1` (stereo partly specified)?
A: EC50: > 200 µM; IC50: 20.9 µM

Q: Which EC50 does the source give for `CCOC(=O)NC1CS(=O)(=O)CC1Cl` (stereo unspecified) here?
A: > 200 µM

Q: And the IC50?
A: > 200 µM

Q: For `NNC1=N/C(=C\c2ccccc2O)C(=O)N1`, which EC50 is on record?
A: > 200 µM

Q: What about the IC50 of the same molecule?
A: 35.5 µM

Q: For `C=C1CC(COc2ccc3c(C)c(C)c(=O)oc3c2C)(c2ccccc2)OC1=O` (stereo unspecified), which EC50 is on record?
A: > 200 µM

Q: What about the IC50 of the same molecule?
A: 0.933 µM

Q: What does the source list for `O=C1C=C(Br)C(=O)C(Br)=C1`?
A: EC50: > 257 µM; IC50: 23.4 µM

Q: With `CCOC(=O)C(C)(C)Oc1ccc2c(-c3ccc(Cl)cc3)cc(=O)oc2c1` as the molecule, how does the EC50 read?
A: > 13.5 µM

Q: And the IC50?
A: > 13.5 µM

Q: Which EC50 does the source give for `O=CC1CCCc2ccccc21` (stereo unspecified) here?
A: > 44.7 µM

Q: What about the IC50 of the same molecule?
A: > 44.7 µM

Q: What does the source list for `CC12CC3CC(C)(C1)CC(CN=C(N)CS)(C3)C2`?
A: EC50: > 200 µM; IC50: 31.6 µM

Q: With `O=C(O)CN(CCNC(=O)OCC1c2ccccc2-c2ccccc21)CCNC(=O)OCC1c2ccccc2-c2ccccc21` as the molecule, how does the EC50 read?
A: > 200 µM

Q: And the IC50?
A: 39.8 µM

Q: Which EC50 does the source give for `CC(C)(C)c1ccc(C2(Br)C(=O)NC(=O)C2=O)cc1` (stereo unspecified) here?
A: > 200 µM

Q: What about the IC50 of the same molecule?
A: > 200 µM

Q: For `Cc1[nH]c(N)nc(=S)c1CCC(=O)O`, which EC50 is on record?
A: > 200 µM

Q: And the IC50?
A: > 200 µM

Q: `O=c1/c(=C\c2ccccc2)sc2n1C(c1ccccc1)C1(O)CCCCC1N=2` (stereo unspecified) was tested. Which EC50 did it give?
A: > 200 µM

Q: What about the IC50 of the same molecule?
A: 60.3 µM

Q: What does the source list for `N=C(N)SCc1cn2ccccc2n1`?
A: EC50: > 891 µM; IC50: 50.1 µM

Q: Which results are given for `O=NN1C(c2ccccc2)CCCC1c1ccccc1` (stereo unspecified)?
A: EC50: > 51.3 µM; IC50: > 51.3 µM

Q: `Cc1nc2c(nc1C)C(=O)C(Br)=CC2=O` was tested. Which outcome did it give?
A: inactive

Q: What does the source list for `O=C1NC(=O)/C(=C\c2cccc(O)c2)N1`?
A: EC50: > 200 µM; IC50: > 200 µM

Q: Which EC50 does the source give for `COCCN(CCOC)C1C2=C(CCCC2)OS(=O)(=O)C1c1ccccc1` (stereo unspecified) here?
A: > 66.1 µM

Q: And the IC50?
A: > 66.1 µM

Q: Which EC50 does the source give for `CC(=O)OCC1Cn2c(c(-c3ccccc3)c(=O)[nH]c2=S)O1` (stereo unspecified) here?
A: > 603 µM

Q: What about the IC50 of the same molecule?
A: > 603 µM

Q: `CCOC(=O)CCC(NC(=O)c1ccc(Oc2nc3ccccc3nc2-c2ccccc2)cc1)C(=O)OCC` (stereo unspecified) was tested. Which EC50 did it give?
A: > 200 µM

Q: And the IC50?
A: > 200 µM

Q: For `O=[N+]([O-])C(=C/c1cccc2ccccc12)/C(=C\c1cccc2ccccc12)[N+](=O)[O-]`, which EC50 is on record?
A: > 20 µM

Q: What about the IC50 of the same molecule?
A: 9.12 µM

Q: `O=C(O)CCSCc1cc(C(=O)Nc2ccc(/C=C/c3ccc(NC(=O)c4cc(CSCCC(=O)O)c5ccccc5c4O)cc3S(=O)(=O)O)c(S(=O)(=O)O)c2)c(O)c2ccccc12` was tested. Which EC50 did it give?
A: 83.2 µM

Q: And the IC50?
A: 162 µM

Q: How did the outcome turn out when `CC(C)CCC[C@@H](C)C1CCC2[C@@H]3CC=C4C[C@@H](C(=O)NCC[N+](C)(C)CCCS(=O)(=O)[O-])CC[C@]4(C)C3CC[C@@]21C` (stereo partly specified) was run?
A: inactive

Q: With `CCN(CC)CCOC(=O)c1cc2ccccc2n1-c1ccccc1` as the molecule, how does the EC50 read?
A: > 200 µM

Q: What about the IC50 of the same molecule?
A: 79.4 µM

Q: Which EC50 does the source give for `Nc1nnc(-c2ccccc2O)o1` here?
A: > 200 µM

Q: What about the IC50 of the same molecule?
A: 110 µM

Q: `CC(C)(O)/C=C\P(C)(=O)c1ccccc1` (stereo unspecified) was tested. Which EC50 did it give?
A: > 200 µM

Q: And the IC50?
A: > 200 µM

Q: Which results are given for `CCCCCCCCCCCCCC(=O)OCC1OC(n2cc(C)c(=O)[nH]c2=O)CC1F` (stereo unspecified)?
A: EC50: 0.0437 µM; IC50: 120 µM

Q: Which results are given for `Cc1cc(C#N)c(=S)n(C2OC(CO)C(O)C(O)C2O)c1C` (stereo unspecified)?
A: EC50: > 200 µM; IC50: > 200 µM

Q: How did the EC50 turn out when `CCOC(=O)C1C(c2ccc(OC)cc2)c2c([nH]n(-c3ccccc3)c2=O)CC1(O)OCC` (stereo unspecified) was run?
A: > 200 µM

Q: And the IC50?
A: 9.12 µM

Q: Which EC50 does the source give for `Cn1cc(NC(=O)c2cc(NC(=O)CN=C(N)N)cn2C)cc1C(=O)NCCC(=N)N` here?
A: > 200 µM

Q: What about the IC50 of the same molecule?
A: > 200 µM

Q: Which EC50 does the source give for `S=C=NC/C(Cl)=C/Cl` here?
A: > 200 µM

Q: What about the IC50 of the same molecule?
A: 129 µM

Q: What does the source list for `CCOC(=O)N1CC2OC(n3cc(C)c(=O)[nH]c3=O)CC2O1` (stereo unspecified)?
A: EC50: > 200 µM; IC50: > 200 µM

Q: `Cc1ccc(NC(=O)CCc2nc(=S)[nH][nH]2)cc1` was tested. Which EC50 did it give?
A: 251 µM

Q: And the IC50?
A: 331 µM

Q: Which results are given for `O=C(NCCNCCNC(=O)c1cc(-c2ccccc2)nc2ccccc12)c1cc(-c2ccccc2)nc2ccccc12`?
A: EC50: > 20 µM; IC50: 3.47 µM
